Experimental data: patent US9566251B2, “Volatile anesthetic compositions and methods of use” (Board of Regents, The University of Texas System, priority 2008, dated 2017)
“And” between values parts separate entries of the source, which are not always exact repeats. Equal values may be shown once.

Legend:
[1] = system: Sprague-Dawley rats; experiment: Hotplate test (thermal withdrawal latency) after intrathecal injection of volatile anesthetic; type: in vivo; conditions: rat; for Thermal withdrawal latency, Average / Thermal withdrawal latency, Group Average: 2 microliters intrathecal; for Thermal withdrawal latency, Average: average per rat; for Thermal withdrawal latency, Group Average: group of four rats, saline control 8.33 seconds; for thermal latency time (analgesic effect): intrathecally delivered dose of 2 microliters
Method: This study was designed to evaluate efficacy of direct intrathecal injection of volatile anesthetic in reducing pain and providing analgesia. The study was conducted over a one (1) month period using the volatile anesthetics isoflurane and sevoflurane injected directly intrathecally or dissolved in saline as shown in the studies below. The subject animal used was the rat, since the rat has a well-established model of pain/analgesia testing. In particular, Sprague-Dawley rats weighing over 350 gm were used. The rats were anesthetized with pentobarbital (50 mg/kg), and the anesthetic depth of the animals was determined by corneal reflex and paw withdrawal reflex to a noxious stimulus.
[…]. A midline surgical dissection of the posterior neck muscles was performed to obtain access to the occipito-atlantoid membrane. This membrane was identified and then dissected. A sterile polyethylene catheter was introduced in the subarachnoid space until the lumbar enlargement of the spinal cord (approximately 7-8 cm measured in each animal). The surgical wound was closed, first suturing the neck muscles with 3-0 silk sutures and then closing the skin incision with staples.
After the surgery, the rats were moved to their cages and a radiant lamp was placed over the cages so that the rats would not undergo anesthetic-induced hypothermia. The rats were continuously monitored from the end of the surgery until they were fully awake. Rats showing any motor impairment after surgery were euthanized.
On the fifth day after surgery, those rats without wound infection or motor dysfunction were transported to the pain behavioral lab to enter the intrathecal study with volatile anesthetics. Twelve rats were selected for the study. All these rats had intrathecal catheters. Isoflurane (1-chloro-2,2,2-trifluoroethyl difluoromethyl ether) and sevoflurane (fluoromethyl 2,2,2-trifluoro-1-(trifluoromethyl)ethyl ether) were used as the halogenated ether compounds. Both of these are halogenated volatile anesthetics, with isoflurane manufactured by Baxter and sevoflurane manufactured by Abbott Laboratories. The 12 rats were divided into 3 groups of four rats each for study A and B.
In the second group, 2 microliters of isoflurane was injected via the intrathecal catheter into each rat. This catheter was also flushed with preservative-free normal saline. This group was then subjected to pain behavioral testing.
In the third group, 2 microliters of sevoflurane was injected via the intrathecal catheter into each rat. This catheter was also flushed with preservative-free normal saline. This group was then subjected to pain behavioral testing.
A “hotplate” behavioral test was used to evaluate pain perception and analgesia. The pain behavioral testing model used in these studies have been well established by Tony Yaksh. (See, for example Chaplan et al., 1994, J. Neurosci. Methods, 53:55-63; Yaksh et al., 2001, J. Appl. Physiol., 90:2386-2402; Kim and Chung, 1992, Pain, 50:355-363.; Sorkin et al., 2001, Anesthesiology, 95:965-973). This test involves determining how quickly a rat will withdraw its hind paw in response to a noxious stimulus such as a radiant heat source placed directly underneath its paw. This time for withdrawal is known as “thermal withdrawal latency”.
Rats were transferred for testing onto a modified Hargreaves apparatus with a heated glass plate maintained at 25° C. (see Hargreaves et al., 1998, Pain, 32:77-88). A focused projection bulb below the plate was aimed at the mid-plantar surface of the paw. A photodiode-activated timer measured the withdrawal latency, and a cutoff time of 25 seconds was used to prevent tissue damage. Thermal withdrawal latency to radiant heat was measured at 5 minutes and 30 minutes after each intrathecal injection. Each paw was tested three times, and the results were averaged. The below data was collected for both the right and left hind paws: […]

[2] = system: rats; experiment: Plantar Heat Stimulation Test after subcutaneous injection into the hindpaw; type: in vivo; conditions: rat, 100 μl subcutaneously into one hindpaw; for antinociceptive effect (paw withdrawal latency, treated vs untreated paw): cutoff 22 seconds
Method: Rats are assessed for response to thermal stimulation using the Plantar Heat Stimulation Test (i.e., radiant heat) (Planar Analgesia Instrument, Ugo Basile, Italy) by measuring paw withdrawal latency. 100 μl of pureform Isoflurane or 100 μl of 2% Lidocaine was injected subcutaneously into the planar surface of one hindpaw of each rat. For each rat, the untreated, contralateral hindpaw served as its own control.
After the rats acclimated for 15 minutes under acrylic boxes that allow minimal movement, a heat source was positioned beneath the mid-plantar surface of the hind paw. Withdrawal latency was defined as the period of time from the beginning of the thermal stimulation to the brisk withdrawal of the hind paw. To avoid tissue damage, a cutoff time of 22 seconds was set. Thermal stimulation was applied three times to each hind paw at an interstimulus interval of 3-5 minutes. Thermal withdrawal latency was assessed before and after the treatment. An increase in the withdrawal latency in the treated paw compared to the control paw was assessed as analgesic activity of the tested formulation.
For statistical comparison, student paired t-test analysis was used. Differences were considered significant at P<0.05 (# P<0.05 isoflurane versus control n=4; * P<0.05 lidocaine versus control n=3).

[3] = Isoflurane stability: weighing remaining isoflurane in uncapped vials over time; type: physicochemical; conditions: uncapped vial in fume hood
Method: In the Examples that follow, the stability of isoflurane in the described compositions was determined in two ways. First, the compositions were examined for the presence of phase separation at the macroscopic level. Secondly, isoflurane content of the compositions was determined by weighing the remaining isoflurane in the composition when they were left uncapped over time. […] The other vials received varying amounts of isoflurane. They were left uncapped in the hood. Over time, the vials were weighed to see if the isoflurane stayed in the composition or had evaporated. The amount evaporated over time in the vehicle control was subtracted from that in the isoflurane-containing composition. The pure form of isoflurane is a volatile anesthetic. In order to assess the volatility of isoflurane, two vials received the indicated amounts of pure form isoflurane. The vials were placed in the chemical fume hood and left uncapped. The vials were weighed at the indicated times to determine the amount of evaporated isoflurane. As it is shown in the table below 0.7893 g isoflurane was evaporated within 3 hours, while 3.4825 g isoflurane took approximately 8 hrs to evaporate completely. These amounts of isoflurane are similar to the amounts of isoflurane that were used to prepare the isoflurane compositions in the Examples that follow.

| Compound | Thermal withdrawal latency, Average ([1]; 5 minutes after injection) | Thermal withdrawal latency, Group Average ([1]; 5 minutes after injection) [s] | Thermal withdrawal latency, Average ([1]; 30 minutes after injection) | thermal latency time (analgesic effect) [1] | duration of antinociceptive effect [2] | antinociceptive effect (paw withdrawal latency, treated vs untreated paw) [2] | antinociceptive effect began at ([2]; time after administration) [min] | time until isoflurane was evaporated ([3]; 0.7893 g pure form) [h] | time to evaporate completely ([3]; 3.4825 g pure form) | antinociceptive effect peaked at ([2]; time after administration) [min] | antinociceptive effect returned to baseline levels at ([2]; time after administration) [min] |
| --- | --- | --- | --- | --- | --- | --- | --- | --- | --- | --- | --- |
| FC(F)OC(Cl)C(F)(F)F (centres unmarked) [Isoflurane, 1-chloro-2,2,2-trifluoroethyl difluoromethyl ether] | 19.25 s and 18.21 s and 18.63 s and 17.95 s | 18.51 | 9.48 s and 8.93 s and 10.52 s and 9.21 s | significantly increased | continued throughout the experiment | significant antinociceptive effect | 25 | ≤ 3 | approximately 8 hrs | – | – |
| FCOC(C(F)(F)F)C(F)(F)F [Sevoflurane, fluoromethyl 2,2,2-trifluoro-1-(trifluoromethyl)ethyl ether] | 14.65 s and 13.82 s and 13.14 s and 12.98 s | 13.65 | 8.61 s and 8.35 s and 8.89 s and 9.54 s | significantly increased | – | – | – | – | – | – | – |
| CCN(CC)CC(=O)Nc1c(C)cccc1C [Lidocaine] | – | – | – | – | – | significant antinociceptive effect | 5 | – | – | 15 | 45 |
